How the values were obtained:
Assay type in all cases: in vivo
Botrytis elliptica [1] = assay: Field trials, control of lily gray mold; disease severity; conditions: antagonist 1 × 10^5 cfu/ml or 100 ppm flusilazole, three applications, recorded 14 days after the last application, scale 0 to 4
Protocol: Lily fields in Taipei and I-Lan counties were selected for this experiment. Suspensions of the B190 and Botrytis elliptica were adjusted to about 1×10^5 cfu/ml and 1×10^3 conidia/ml, respectively, before application. 100 ppm of flusilazole (37% Emulsion, Du Pont, USA) was used for comparison. After spraying B190 or flusilazole by sprayer (MS sprayer, Taiwan), 5 ml of the spore suspension of Botrytis elliptica was sprayed onto each 100-day-old lily plant. A total of three sprays at 10-day intervals were applied. Each treatment consisted of 100 plants with 4 replicates. Every replicate was planted on a plot, which was 30 m long and 2 m wide. All the treatments were arranged based on randomized complete block design. Two weeks after the last spray, disease severity was assessed and analyzed as above-mentioned.

Botrytis elliptica [2] = assay: B190 formulations on Botrytis elliptica infected lilies in greenhouse; conditions: B190 […] cfu/ml, 3 applications (10 days/interval), flusilazole 100 p.p.m., recorded ten days after the last application, scale 0 to 4
Protocol: Bacillus amyloliquefaciens B190 was cultured in a flask containing 1% rice chaff and 99% de-ion water. The flask was then positioned on a rotary shaker located in an incubator. B190 was incubated at 25±5° C. for 3 days. Thereafter, the B190-containing solution was filtered for application in the following experiments.
Different chemicals or adjuvants were added to the B190-containing filtrate for investigating their inhibitive capability on Botrytis elliptica infected lilies in greenhouse. The chemicals include 0.025% Ca(OH)2, 0.05% Na2CO3, 0.025% NH4NO3 and 0.025% K2HPO4. The adjuvants comprise 0.1% Tween 80 and 0.05% mineral oil.
Unformulated B. amyloliquefaciens B190 and 100 p.p.m. flusilazole were used as controls. In addition, uninoculated and inoculated lily plants with B. elliptica were also included as controls. Applications of these treatments were carried out when flowering tissues reached 30 to 50 mm in diameter. Treatments were applied three times with intervals of 10 days. Thereafter, 5 ml of B. elliptica spore suspension (1×10^3 conidia/ml) was inoculated on lily plants except the uninoculated control. Each different treatment had four replicates, and 5 lily plants were applied in every replicate. All treatments were arranged in a randomized complete block design. After inoculating B. elliptica for ten days, disease severity was scored as described above.

Botrytis elliptica [3] = assay: B190 formulations on Botrytis elliptica infected lilies in field; conditions: B190 1 × 10^5 cfu/ml, 3 applications (10 days/interval), fourteen days after the last application, scale 0 to 4
Protocol: Bacillus amyloliquefaciens B190 was cultured in a flask containing 1% rice chaff and 99% de-ion water. Then the flask was positioned on a rotary shaker located in an incubator. B190 was incubated at an ambient temperature of 25±5° C. for 3 days. Thereafter, the cultured B190 was collected by means of centrifugation (3000 rpm/10 minutes; Tomy CM-60 RN, Seiko, Japan). The pellet mixed with 1% (w/v) kaolin was used as a wettable powder (WP). The pellet mixed with 0.025% (v/v) heavy mineral oil and 0.1% Tween 80 was served as an emulsion (E).
Different chemicals or adjuvants were added to the wettable powder, emulsion or B190-containing filtrate as described above for investigating their inhibitory ability on lilies in the field. These chemicals include 0.025% Ca(OH)2, 0.05% Na2CO3, 0.025% NH4NO3 and 0.025% K2HPO4. The adjuvants comprise 0.1% Tween 80 and 0.05% mineral oil.
Unformulated B. amyloliquefaciens B190 and 100 p.p.m. flusilazole were used as controls. In addition, uninoculated and inoculated lily plants with B. elliptica were also included as controls. Applications of these treatments were carried out when flowering tissues reached 100 to 120 mm in diameter. Treatments were applied three times with intervals of 10 days. […] After inoculating B. elliptica for ten days, disease severity was scored as described above.

`C[Si](Cn1cncn1)(c1ccc(F)cc1)c1ccc(F)cc1` [Flusilazole, flusilazole] gave a Disease severity (Botrytis elliptica [1]; I-Lan) of 0.80 b, a Disease severity (Botrytis elliptica [1]; Taipei) of 0.31 bc and a Disease severity (Botrytis elliptica [2]) of 0.32 ef. It also gave a Disease severity (Botrytis elliptica [3]; I: two trials in I-Lan county) of 0.23 cd and a Disease severity (Botrytis elliptica [3]; II: two trials in NTU experimental farm) of 0.39 bc.

Source: US6960342B2, “Method for inhibiting pathogenic fungi in plants using Bacillus amyloliquefaciens” (National Taiwan University, priority 2002, dated 2005)
